{"source": "patent US20240003879A1", "about": "“METHODS FOR DIAGNOSIS AND MONITORING OF TOXIC EPIDERMAL NECROLYSIS” (INSERM (INSTITUT NATIONAL DE LA SANTÉ ET DE LA RECHERCHE …, priority 2020, published 2024)", "key": {"[1]": {"tested_on": "plasmablasts and NK cells", "conditions": "cited from earlier work"}, "[2]": {"tested_on": "relapsed or refractory multiple myeloma", "conditions": "cited from earlier work"}, "[3]": {"tested_on": "Skw3 control transductant UNO H13 (Sulfamethoxazole-allergic donor)", "assay": "TCR-transductant stimulation assay, control transductant UNO H13", "assay_type": "cell-based, human", "conditions": "24 h, heterologous EBV-transformed B cells, no drug 5.2", "from_the_text": "(§1) Skw3 cell lines (Leibniz Institute DSMZ, Brunswick, Germany, (50)) were transduced as described previously (51). […] The resulting retroviruses were used to transduce the TCR-defective Skw3 cell line, which also expresses the human CD8 coreceptor. The TCR-transduced cells outgrowing in selective medium were picked, and the expression of the correct TCR α and β was further assessed by flow cytometry, using a FACS-Canto-I device (BD-Biosciences, San Jose, CA, USA). The transduced cells with stable TCR expression were selected for assessment of reactivity and specificity, which was measured by TCR-induced CD69 expression. Skw3 cell lines expressing the cognate TCR α and β chains were cocultured with autologous EBV-transformed B-lymphoblastoid cell lines (52) at 1:2 ratio at 37° C. Tested drugs were added to the cocultures with the indicated concentrations. After 24 h, cells were stained with anti-human CD3 (Biolegend) and anti-human CD69 (Biolegend) and analysed by flow cytometry. […] Experiments were repeated at least 2 times. […] Heterologous EBV-transformed B cells were also used to stimulate control transductants."}, "[4]": {"tested_on": "human CD45+ cells (PBMCs from a TEN patient)", "assay": "Human PBMC expansion in lamotrigine- versus vehicle-treated NSG recipient mice", "assay_type": "in vivo, mouse", "experimental": "NSG animals were adoptively transferred at day 0 with 1.10^6 millions PBMCs collected from a TEN patient, 1 year after disease recovery. Animals were then administrated with lamotrigine (the culprit drug; 0.1 mg/kg/day) or vehicle by oral gavage, every day, from day 4. Results depict the kinetic of human CD45+ cell expansion measured by flow cytometry in the blood of NSG mice throughout the protocol, or the spleen at day 29. Results are expressed as mean and individual % of humanization, calculated according to the following formula: % human CD45+ cells/% (mouse+human) CD45+ cells. Six mice per group were used in this experiment. NSG animals were adoptively transferred at day 0 with 1.10^6 millions PBMCs collected from a TEN patient (1 year after disease recovery) or from a healthy donor. Animals were then administrated with lamotrigine (the culprit drug; 0.1 mg/kg/day) or vehicle, by oral gavage every day, from day 4. Results depict the expansion of human CD45+ cells measured by flow cytometry in the spleen of NSG mice, 29 days after cell transfer. Results are expressed as mean and individual % of humanization, calculated according to the following formula: % human CD45+ cells/% (mouse+human) CD45+ cells. Six mice per group were used in this experiment. NSG animals were adoptively transferred at day 0 with 1.10^6 millions PBMCs collected from a TEN patient (1 year after disease recovery). Animals were then administrated with lamotrigine (the culprit drug; 0.1 mg/kg/day), by oral gavage every day, from day 4. Results depict the expression of CD38 (A) and Granzyme B and Granulysin (B) markers on CD4+ and CD8+ T cells as measured by flow cytometry in the spleen of NSG mice, 43 days after cell transfer. Model description: We generated a surrogate model of TEN disease in mouse, by reconstituting NSG animals with 1.10^6 millions of peripheral blood mononuclear cells (PBMCs) collected from a TEN patient, 1 year after disease recovery. The patients' T cells were then reactivated with the offending drug delivered to animals by oral gavage."}, "[5]": {"tested_on": "NK cells", "conditions": "preclinical data; cited from earlier work"}, "[6]": {"tested_on": "relapsed or refractory multiple myeloma", "conditions": "monotherapy or with dexamethasone or dexamethasone and an immunomodulatory drug; RRMM; doses up to 16 mg/kg intravenous infusion; cited from earlier work"}, "[7]": {"tested_on": "Skw3 control transductant 17D (Abacavir-allergic donor)", "assay": "TCR-transductant stimulation assay, control transductant 17D", "assay_type": "cell-based, human", "conditions": "control 17D, 24 h, heterologous EBV-transformed B cells, no drug 1.4", "from_the_text": "as §1"}, "[8]": {"tested_on": "TCRαβ Skw3 transfectant C2 (TCR of top clone of patient TEN-7)", "assay_type": "cell-based, human", "conditions": "24 h, heterologous PBMCs from healthy donors, no drug 31.7", "from_the_text": "Skw3 cell lines (Leibniz Institute DSMZ, Brunswick, Germany, (50)) were transduced as described previously (51). […] The resulting retroviruses were used to transduce the TCR-defective Skw3 cell line, which also expresses the human CD8 coreceptor. The TCR-transduced cells outgrowing in selective medium were picked, and the expression of the correct TCR α and β was further assessed by flow cytometry, using a FACS-Canto-I device (BD-Biosciences, San Jose, CA, USA). The transduced cells with stable TCR expression were selected for assessment of reactivity and specificity, which was measured by TCR-induced CD69 expression. Skw3 cell lines expressing the cognate TCR α and β chains were cocultured with autologous EBV-transformed B-lymphoblastoid cell lines (52) at 1:2 ratio at 37° C. Tested drugs were added to the cocultures with the indicated concentrations. After 24 h, cells were stained with anti-human CD3 (Biolegend) and anti-human CD69 (Biolegend) and analysed by flow cytometry. […] Experiments were repeated at least 2 times. […] Then, the productive rearranged TCRα and TCRβ chains were transduced into Skw3 cells, a TCR defective lymphoma line (28) (data not shown). […] The following day, we measured CD69 expression at the surface of Skw3 cells, as marker for TCR stimulation. […]"}}, "note": "Entries after “also recorded” stand apart in the source; their conditions may differ.", "data": [{"molecule": "TAK-079: CD38-binding fully human IgG 1 λ mAb being developed by Takeda", "values": [{"measurement": "tolerability in healthy populations", "setting": "[1]; healthy populations", "value": "well tolerated"}, {"measurement": "depletion of plasmablasts and NK cells", "setting": "[1]; subcutaneous injection", "value": "more durable in depleting plasmablasts and NK cells"}, {"measurement": "objective response rate", "setting": "[2]; heavily pre-treated patients with RRMM, subcutaneous injection", "value": 43, "unit": "%"}, {"measurement": "safety/tolerability in patients", "setting": "[2]; human, in vivo, sc", "value": "safe and well-tolerated"}]}, {"molecule": "CC(C)Cc1ccc(C(C)C(=O)O)cc1", "note": "(centres unmarked) [Ibuprofen]", "values": [{"measurement": "% of CD69 expression in CD3+ transfectants, Concentration 1", "setting": "[3]; Ibuprofen 20 μg/ml", "value": 4.6, "unit": "%"}, {"measurement": "% of CD69 expression in CD3+ transfectants, Concentration 2", "setting": "[3]; Ibuprofen 100 μg/ml", "value": 10.5, "unit": "%"}, {"measurement": "% of CD69 expression in CD3+ transfectants, Concentration 3", "setting": "[3]; Ibuprofen 200 μg/ml", "value": 12.4, "unit": "%"}]}, {"molecule": "Nc1nnc(-c2cccc(Cl)c2Cl)c(N)n1", "note": "[lamotrigine]", "values": [{"measurement": "expanded CD8+ T cells expressing CD38, Granzyme B and Granulysin markers", "setting": "[4]; lamotrigine 0.1 mg/kg/day from day 4, spleen, 43 days after cell transfer (FIG. 11)", "value": "significant part"}, {"measurement": "number of animals with a high % of humanization, culprit drug group versus vehicle group", "setting": "[4]; lamotrigine 0.1 mg/kg/day oral gavage from day 4, TEN patient PBMCs, blood and spleen, day 29 (FIG. 9)", "value": "largely superior"}, {"measurement": "proliferation/expansion of TEN PBMCs versus healthy donor PBMCs in response to lamotrigine", "setting": "[4]; lamotrigine 0.1 mg/kg/day oral gavage from day 4, spleen, 29 days after cell transfer (FIG. 10)", "value": "Preferential expansion of TEN PBMCs; also recorded: superior ability of TEN cells to proliferate"}]}, {"molecule": "MOR202: fully human anti-CD38 antibody being developed by Morphosys (CAS Number 2197112-39-1)", "values": [{"measurement": "effect on NK cells", "setting": "[5]", "value": "reduces NK cells"}, {"measurement": "safety and efficacy", "setting": "[6]", "value": "safe and effective"}]}, {"molecule": "COc1ccnc(C[S+]([O-])c2nc3ccc(OC(F)F)cc3[nH]2)c1OC", "note": "(centres unmarked) [Pantoprazole]", "values": [{"measurement": "% of CD69 expression in CD3+ transfectants, Concentration 1", "setting": "[7]; Abacavir 1 μg/ml, Pantoprazole 12.5 μg/ml", "value": 1.8, "unit": "%"}, {"measurement": "% of CD69 expression in CD3+ transfectants, Concentration 2", "setting": "[7]; Abacavir 10 μg/ml, Pantoprazole 25 μg/ml", "value": 1.8, "unit": "%"}, {"measurement": "% of CD69 expression in CD3+ transfectants, Concentration 3", "setting": "[7]; Abacavir 20 μg/ml, Pantoprazole 50 μg/ml", "value": 1.7, "unit": "%"}, {"measurement": "% of CD69 expression in CD3+ transfectants, Concentration 2", "setting": "[8]; Pantoprazole 10 μg/ml", "value": 40.1, "unit": "%"}, {"measurement": "% of CD69 expression in CD3+ transfectants, Concentration 3", "setting": "[8]; Pantoprazole 50 μg/ml", "value": 47.4, "unit": "%"}]}]}
